From patent publication US6017520A, “Penetration enhancement of topically applied therapeutic formulations” (Block Drug Company, Inc., priority 1997, dated 2000)

Assay: Penetration study, Bronaugh flow-through diffusion cell system (permeability coefficient Kp)
Settings: 0.5 percent ketoprofen in the presence of vitamin E

SMILES: CC(C(=O)O)c1cccc(C(=O)c2ccccc2)c1 (stereo not shown) [ketoprofen]
- penetration rate: greater than that of 1.0 percent ketoprofen without vitamin E
